{"source": "patent US20070105782A1", "about": "“Protectant Combinations for Reducing Toxicities” (BOARD OF TRUSTEES OF SOUTHERN ILLINOIS UNIVERSITY, priority 2005, published 2007)", "key": {"[1]": {"conditions": "cited from earlier work"}, "[2]": {"system": "male Wistar rats", "conditions": "pretreated 30 minutes prior to CDDP infusion", "experimental": "Complete data sets are obtained for five groups of five male Wistar rats (280-421 g). All animals are anesthetized with 1 ml/mg IM of Rompun cocktail (a solution containing 86.21 mg/ml ketamine and 2.76 mg/ml xylazine) prior to all injections and testing. Anesthesia is supplemented as needed with half doses throughout testing. The five groups include: a treated control group which received a dose of CDDP dissolved in normal sterile saline (1 mg of CDDP/ml normal saline; solution pH 6.3) administered by i.p. infusion with a Harvard Apparatus Infusion Pump, over a 30 minute period, an untreated control group that received an equivalent volume of normal saline (pH 6.5) instead of CDDP, and three experimental groups that receive various doses of protectant combination (comprising two or more of methionine protectant agents, carnitine, N-acetylcysteine, magnesium ions, lipoic acid, ebselen, glutathione, and glutathione ester) within the ranges described below dissolved in 3-5 ml of normal saline (solution pH 6.6) delivered by slow (over 1-2 minutes) i.p. injection 30 minutes prior to the same CDDP infusion as the treated control group. Both CDDP (purchased from Sigma Chemical Co., St. Louis) and the protectant combinations are freshly prepared before each experiment."}}}
{"compound": "CSCC[C@@H](N)C(=O)O", "note": "[D-methionine]", "values": [{"measurement": "excreted without conversion to the L-isomer", "setting": "[1]; humans, except in L-methionine deprivation", "value": "60-70%"}, {"measurement": "plasma levels compared with L-methionine", "setting": "[1]; in the human", "value": "higher plasma levels than L-methionine"}, {"measurement": "survival until the end of the study period", "setting": "[2]", "value": "all of the animals in each of these groups are expected to survive"}]}
